According to US20230218624A1 (Urovant Sciences GmbH, priority 2017, published 2023):
Where two headings read alike, the source gives them in different places. Marks after values point to notes of the source that are not given here.

Experiments:
QTc interval = experiment: Thorough QT study, single oral doses; settings: for QTcF LS mean difference from placebo / QTcF change from baseline, LS mean: single dose 400 mg
Plasma protein binding = assay type: in vitro ADME; settings: human, plasma
human plasma proteins = experiment: Plasma protein binding; assay type: in vitro ADME
[1] = Multiple rising dose Phase 1 pharmacokinetics; assay type: in vivo, human
Text: The steady state AUC geometric mean accumulation ratios were ˜2 in young male subjects and ˜2.8 in elderly subjects (male and female).
Although exposures were similar in middle-aged males when compared to young males, plasma concentrations were higher in elderly compared to middle-aged and young subjects. […] Furthermore, the steady state AUC geometric mean accumulation ratios were ˜2 in young males and ˜2.8 in the elderly.

[2] = elderly female subjects, 100 mg
[3] = multiple dose 25 mg, after 14 days, healthy young males
[4] = multiple dose 50 mg, after 14 days, Japanese healthy young males
[5] = multiple dose 50 mg, after 14 days, healthy young males
[6] = multiple dose 100 mg, after 14 days, Japanese healthy young males
[7] = multiple dose 100 mg, after 14 days, elderly Japanese
[8] = multiple dose 100 mg, after 14 days, elderly male and female
[9] = multiple dose 100 mg, after 14 days, healthy young males
[10] = multiple dose 150 mg, after 14 days, healthy young males
[11] = multiple dose 150 mg, after 14 days, middle-aged female
[12] = multiple dose 150 mg, after 14 days, middle-aged male
[13] = multiple dose 200 mg, after 14 days, Japanese healthy young males
[14] = multiple dose 200 mg, after 14 days, healthy young males
[15] = multiple dose 300 mg, after 14 days, healthy young males
[16] = multiple dose 400 mg, after 14 days, healthy young males

For `O=C(Nc1ccc(C[C@@H]2CC[C@H]([C@H](O)c3ccccc3)N2)cc1)[C@@H]1CCc2nccc(=O)n21` [Vibegron, (6S)—N-[4-[[(2S,5R)-5-[(R)-hydroxy(phenyl)methyl]pyrrolidin-2-yl]methyl]phenyl]-4-oxo-7,8-dihydro-6H-pyrrolo[1,2-a]pyrimidine-6-carboxamide], the “QTcF LS mean difference from placebo” value (QTc interval; 6 hour) was -2.70 ms, the “QTcF change from baseline, LS mean” value (QTc interval; 6 hour) was -8.33 ms and the “QTcF LS mean difference from placebo” value (QTc interval; 8 hour) was -3.24 ms. For the same molecule, the “QTcF change from baseline, LS mean” value (QTc interval; 8 hour) was -11.60 ms, the “QTcF LS mean difference from placebo” value (QTc interval; 10 hour) was -4.14 ms and the “QTcF change from baseline, LS mean” value (QTc interval; 10 hour) was -10.29 ms. For the same molecule, the “QTcF LS mean difference from placebo” value (QTc interval; 12 hour) was -4.00 ms, the “QTcF change from baseline, LS mean” value (QTc interval; 12 hour) was -7.10 ms and the “QTcF LS mean difference from placebo” value (QTc interval; 23.5 hour) was -0.34 ms. The “QTcF change from baseline, LS mean” value (QTc interval; 23.5 hour) was -2.87 ms, the “effect on QTc or blood pressure” value (QTc interval; thorough QT study) was “no clinically meaningful effect on QTc or blood pressure” and the fraction unbound (Plasma protein binding) was 0.49. The “bound to human plasma proteins” value (human plasma proteins) was “approximately 49%”, the “steady state Cmax, elderly compared to young males” value ([1]; 100 mg QD) was ~1.3 fold and the “fe0-24 hr,ss” value ([1]; 100 mg, elderly subjects) was ~17%. The “fe0-24 hr,ss” value ([1]; 100 and 150 mg, young males) was ~14%, the “steady state AUC higher in middle-aged females vs middle-aged males” value ([1]; 100 or 150 mg) was ~1.5 fold and the “steady state exposure (AUC0-24) higher in elderly Japanese vs elderly non-Japanese” value ([1]; Day 14) was 35%. The “steady state AUC0-24 hr” value [1, 2] was 2620 ng·h/mL, the “steady state Cmax” value [1, 2] was 278 ng/mL and the “renal clearance (CLR) at steady state” value ([1]; elderly subjects (male and female)) was 127 mL/min. The AUC0-24 ([1]; human, plasma, oral, multiple dose 150 mg, after 14 days, middle-aged female, read-out: AUC0-24) was 3180 ± 925 ng·h/mL, the “steady state exposures higher in Japanese vs non-Japanese young males” value ([1]; multiple dose) was ~30% and the AUC0-24 [1, 3] was 164 ± 25.9 ng·h/mL. The Cmax [1, 3] was 15.6 ± 6.93 ng/mL, the “t1/2 (harmonic mean ± pseudo SD)” value [1, 3] was 94.0 ± 9.60 h and the AUC0-24 [1, 4] was 613 ± 296 ng·h/mL. For the same molecule, the Cmax [1, 4] was 56.9 ± 34.2 ng/mL, the “t1/2 (harmonic mean ± pseudo SD)” value [1, 4] was 69.4 ± 6.6 h and the AUC0-24 [1, 5] was 507 ± 176 ng·h/mL. The Cmax [1, 5] was 41.5 ± 12.3 ng/mL, the Ctrough [1, 5] was 15.2 ± 5.07 ng/mL and the “t1/2 (harmonic mean ± pseudo SD)” value [1, 5] was 77.2 ± 8.9 h. For the same molecule, the AUC0-24 [1, 6] was 1710 ± 542 ng·h/mL, the “t1/2 (harmonic mean ± pseudo SD)” value [1, 6] was 56.8 ± 19.2 h and the AUC0-24 [1, 7] was 2920 ± 693 ng·h/mL. The “t1/2 (harmonic mean ± pseudo SD)” value [1, 7] was 75.1 ± 3.9 h, the AUC0-24 [1, 8] was 2230 ± 671 ng·h/mL and the Cmax [1, 8] was 224 ± 92.0 ng/mL. For the same molecule, the Ctrough [1, 8] was 54.2 ± 15.3 ng/mL, the “t1/2 (harmonic mean ± pseudo SD)” value [1, 8] was 88.4 ± 10.7 h and the AUC0-24 [1, 9] was 1280 ± 529 ng·h/mL. The Cmax [1, 9] was 169 ± 80.9 ng/mL, the Ctrough [1, 9] was 31.9 ± 11.5 ng/mL and the “t1/2 (harmonic mean ± pseudo SD)” value [1, 9] was 79.7 ± 11.5 h. The AUC0-24 [1, 10] was 2285 ± 1140 ng·h/mL, the Cmax [1, 10] was 305 ± 215 ng/mL and the “t1/2 (harmonic mean ± pseudo SD)” value [1, 10] was 79.2 ± 9.2 h. For the same molecule, the Cmax [1, 11] was 246 ± 139 ng/mL, the “t1/2 (harmonic mean ± pseudo SD)” value [1, 11] was 83.1 ± 17.2 h and the AUC0-24 [1, 12] was 2170 ± 452 ng·h/mL. The Cmax [1, 12] was 293 ± 67.1 ng/mL, the “t1/2 (harmonic mean ± pseudo SD)” value ([1]; multiple dose 150 mg, middle-aged male, determined after 28 days of dosing) was 72.7 ± 16.1^d hr and the AUC0-24 [1, 13] was 4370 ± 618 ng·h/mL. For the same molecule, the Cmax [1, 13] was 631 ± 154 ng/mL, the “t1/2 (harmonic mean ± pseudo SD)” value [1, 13] was 59.5 ± 1.9 h and the AUC0-24 [1, 14] was 3200 ± 1120 ng·h/mL. For the same molecule, the Cmax [1, 14] was 313 ± 168 ng/mL, the “t1/2 (harmonic mean ± pseudo SD)” value [1, 14] was 64.7 ± 6.5 h and the AUC0-24 [1, 15] was 6980 ± 1040 ng·h/mL. For the same molecule, the “t1/2 (harmonic mean ± pseudo SD)” value [1, 15] was 61.7 ± 7.3 h, the AUC0-24 [1, 16] was 10500 ± 2140 ng·h/mL and the Cmax [1, 16] was 1400 ± 257 ng/mL. For the same molecule, the “t1/2 (harmonic mean ± pseudo SD)” value [1, 16] was 58.9 ± 5.9 h, the “time to steady state concentrations” value ([1]; once daily dosing) was ≤ 7 days and the “higher exposures (AUC) in females compared with males” value ([1]; regardless of age) was 50%. The “Cmax increased in elderly Japanese vs elderly non-Japanese” value ([1]; steady state) was 82%.
